Counter-ions that a name gives are not always drawn.
Tests used:
Test in all cases: Transient transfection (transactivation) assay in CV-1 cells, GAL4-PPAR LBD chimera, SPAP reporter
Type in all cases: cell-based
[1] = target: T1, hPPAR alpha (Homo sapiens, UniProt Q07869); conditions: read-out: EC50 μM HPPARα
T1 construct: expressed in transfected cells; host or cells: CV-1 cells
T1 sequence (Q07869 239-466 limits assumed): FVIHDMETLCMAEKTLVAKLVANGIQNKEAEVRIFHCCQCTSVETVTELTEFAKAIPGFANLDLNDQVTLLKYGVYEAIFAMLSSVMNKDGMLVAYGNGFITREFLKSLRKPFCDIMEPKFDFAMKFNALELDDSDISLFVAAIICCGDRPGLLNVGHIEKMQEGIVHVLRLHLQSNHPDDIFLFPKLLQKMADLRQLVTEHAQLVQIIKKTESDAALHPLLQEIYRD
Excerpt: (§1) Compounds were screened for functional potency in transient transfection assays in CV-1 cells for their ability to activate the PPAR subtypes (transactivation assay). A previously established chimeric receptor system was utilized to allow comparison of the relative transcriptional activity of the receptor subtypes on the same target gene and to prevent endogenous receptor activation from complicating the interpretation of results. See, for example, Lehmann, J. M.; Moore, L. B.; Smith-Oliver, T. A.; Wilkison, W. O.; Willson, T. M.; Kliewer, S. A., An antidiabetic thiazolidinedione is a high affinity ligand for peroxisome proliferator-activated receptor gamma (PPARgamma), J. Biol. Chem., 270, 12953-6 (1995). The ligand binding domains for murine and human PPAR alpha, PPAR gamma, and PPAR delta were each fused to the yeast transcription factor GAL4 DNA binding domain. CV-1 cells were transiently transfected with expression vectors for the respective PPAR chimera along with a reporter construct containing five copies of the GAL4 DNA binding site driving expression of secreted placental alkaline phosphatase (SPAP) and beta-galactosidase. After 16 h, the medium was exchanged to DME medium supplemented with 10% delipidated fetal calf serum and the test compound at the appropriate concentration. After an additional 24 h, cell extracts were prepared and assayed for alkaline phosphatase and β-galactosidase activity. Alkaline phosphatase activity was corrected for transfection efficiency using the beta-galactosidase activity as an internal standard (see, for example, Kliewer, S. A., et. al. Cell 83, 813-819 (1995)). Rosiglitazone (BRL 49653) was used as a positive control in the hPPAR gamma assay. The positive control in the hPPAR alpha assays was 2-4-[2-(3-[4-fluorophenyl]-1-heptylureido)ethyl]-phenoxy-(2-methyl propionic acid (WO 97/36579). The positive control for PPAR delta assays was 2-{2-methyl-4-[({4-methyl-2-{trifluoromethyl)phenyl]-1,3-thiazol-5-yl}methyl)sulfanyl]phenoxy}acetic acid (WO 01/00603). The positive control was (5-{4-[2-(Methyl-pyridin-2-yl-amino)-ethoxy]-benzyl}-thiazolidine-2,4-dione (J. Med. Chem. 1994, 37(23), 3977), for PPAR gamma.
(§2) Activities in three hPPAR subtypes are reported in the table and are expressed in micromolar.

[2] = target: T2, hPPAR delta (Homo sapiens, UniProt Q03181); conditions: read-out: EC50 μM HPPARδ
T2 construct: expressed in transfected cells; host or cells: CV-1 cells
T2 sequence (Q03181 211-439 limits assumed): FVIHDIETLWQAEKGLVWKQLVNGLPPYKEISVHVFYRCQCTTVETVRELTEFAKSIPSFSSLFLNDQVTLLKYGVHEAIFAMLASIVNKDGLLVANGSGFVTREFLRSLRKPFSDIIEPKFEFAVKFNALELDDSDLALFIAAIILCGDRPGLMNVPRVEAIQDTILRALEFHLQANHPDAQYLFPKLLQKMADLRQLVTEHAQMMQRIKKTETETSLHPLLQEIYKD
Excerpt: as §1, §2

[3] = target: T3, hPPAR gamma (Homo sapiens, UniProt P37231); conditions: read-out: EC50 μM HPPARγ
T3 construct: expressed in transfected cells; host or cells: CV-1 cells
T3 sequence (P37231 238-503 limits assumed): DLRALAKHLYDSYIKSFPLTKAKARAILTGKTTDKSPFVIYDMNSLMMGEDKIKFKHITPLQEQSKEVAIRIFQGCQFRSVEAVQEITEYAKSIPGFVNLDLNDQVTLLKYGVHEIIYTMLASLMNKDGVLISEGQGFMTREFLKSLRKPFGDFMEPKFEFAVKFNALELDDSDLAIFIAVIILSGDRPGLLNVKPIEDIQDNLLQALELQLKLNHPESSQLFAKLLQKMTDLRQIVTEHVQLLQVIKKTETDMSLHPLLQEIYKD
Excerpt: Compounds were screened for functional potency in transient transfection assays in CV-1 cells for their ability to activate the PPAR subtypes (transactivation assay). A previously established chimeric receptor system was utilized to allow comparison of the relative transcriptional activity of the receptor subtypes on the same target gene and to prevent endogenous receptor activation from complicating the interpretation of results. […] The ligand binding domains for murine and human PPAR alpha, PPAR gamma, and PPAR delta were each fused to the yeast transcription factor GAL4 DNA binding domain. CV-1 cells were transiently transfected with expression vectors for the respective PPAR chimera along with a reporter construct containing five copies of the GAL4 DNA binding site driving expression of secreted placental alkaline phosphatase (SPAP) and beta-galactosidase. After 16 h, the medium was exchanged to DME medium supplemented with 10% delipidated fetal calf serum and the test compound at the appropriate concentration. After an additional 24 h, cell extracts were prepared and assayed for alkaline phosphatase and β-galactosidase activity.

Structure (SMILES): Cc1cc(CNC(=O)c2cc(-c3ccc(-c4ccccc4)cc3)n(C)n2)ccc1OC(C)(C)C(=O)O [Example 22, 2-({4-[({[5-(4-biphenylyl)-1-methyl-1H-pyrazol-3-yl]carbonyl}amino)methyl]-2-methylphenyl}oxy)-2-methylpropanoic acid]
- EC50 [1]: 0.02 µM
- EC50 [2]: 1.55 µM

Structure (SMILES): Cc1ccc(CNC(=O)c2cc(-c3ccc(C(C)(C)C)cc3)nn2CCc2ccccc2)cc1OC(C)(C)C(=O)O [Example 51, 2-({5-[({[3-[4-(1,1-dimethylethyl)phenyl]-1-(2-phenylethyl)-1H-pyrazol-5-yl]carbonyl}amino)methyl]-2-methylphenyl}oxy)-2-methylpropanoic acid]
- EC50 [1]: 0.3 µM
- EC50 [2]: > 25 µM
- EC50 [3]: 0.14 µM

Structure (SMILES): Cc1cc(CNC(=O)c2cc(-c3ccc(C(C)C)cc3)n(C)n2)ccc1OC(C)(C)C(=O)O [Example 18]
- EC50 [1]: 0.004 µM
- EC50 [2]: 4.02 µM
- EC50 [3]: 0.009 µM

Structure (SMILES): Cc1cc(CNC(=O)c2cc(-c3cccc(N4CCCC4)c3)nn2C)ccc1OC(C)(C)C(=O)O [Example 23, 2-methyl-2-[(2-methyl-4-{[({1-methyl-3-[3-(1-pyrrolidinyl)phenyl]-1H-pyrazol 5-yl}carbonyl)amino]methyl}phenyl)oxy]propanoic acid]
- EC50 [1]: 0.067 µM
- EC50 [2]: 4.33 µM
- EC50 [3]: 0.779 µM

Structure (SMILES): Cc1cc(CNC(=O)Cc2cc(-c3ccc(C(C)(C)C)cc3)nn2C)ccc1OC(C)(C)C(=O)O [Example 43, 2-[(4-{[({3-[4-(1,1-dimethylethyl)phenyl]-1-methyl-1H-pyrazol-5-yl}acetyl)amino]methyl}-2-methylphenyl)oxy]-2-methylpropanoic acid]
- EC50 [1]: 0.257 µM
- EC50 [2]: > 25 µM
- EC50 [3]: 0.138 µM

Structure (SMILES): Cc1cc(CNC(=O)c2cc(-c3ccc(N4CCOCC4)cc3)nn2C)ccc1OC(C)(C)C(=O)O [Example 39, 2-methyl-2-[(2-methyl-4-{[({1-methyl-3-[4-(4-morpholinyl)phenyl]-1H-pyrazol-5-yl}carbonyl)amino]methyl}phenyl)oxy]propanoic acid]
- EC50 [1]: 1.06 µM
- EC50 [2]: > 25 µM
- EC50 [3]: 1.04 µM

Structure (SMILES): Cc1cc(CNC(=O)c2cc(-c3ccc(C(C)C)cc3)nn2C)ccc1OC(C)(C)C(=O)O [Example 2]
- EC50 [1]: 0.018 µM
- EC50 [2]: 0.82 µM
- EC50 [3]: 0.044 µM

Structure (SMILES): Cc1cc(CNC(=O)c2cc(-c3ccc(C(C)(C)C)cc3)n(C)n2)cc(C)c1OC(C)(C)C(=O)O [Example 25, 2-{4-[({[5-(4-tert-butylphenyl)-1-methyl-1H-pyrazol-3-yl]carbonyl}amino)methyl]-2,6-dimethylphenoxy}-2-methylpropanoic acid]
- EC50 [1]: 0.002 µM
- EC50 [2]: > 25 µM
- EC50 [3]: 0.008 µM

Structure (SMILES): Cc1cc(CNC(=O)c2cc(-c3ccc(C(C)(C)C)cc3)n(C)n2)ccc1OC(C)(C)C(=O)O [Example 1, 2-[(4-{[({5-[4-(1,1-dimethylethyl)phenyl]-1-methyl-1H-pyrazol-3-yl)carbonyl)amino]methyl}-2-methylphenyl)oxy]-2-methylpropanoic acid]
- EC50 [1]: 0.014 µM
- EC50 [2]: 5.45 µM

Structure (SMILES): Cc1cc(CNC(=O)c2cc(-c3ccc(-c4ccccc4C)cc3)n(C)n2)ccc1OC(C)(C)C(=O)O [Example 31, 2-methyl-2-(2-methyl-4-[({[1-methyl-5-(2′-methylbiphenyl-4-yl)-1H-pyrazol-3-yl]carbonyl}amino)methyl]phenoxy}propanoic acid]
- EC50 [1]: 0.093 µM
- EC50 [2]: > 25 µM
- EC50 [3]: 0.026 µM

Structure (SMILES): CCCc1cc(CNC(=O)c2cc(-c3ccc(C(C)(C)C)cc3)nn2C)ccc1OC(C)(C)C(=O)O [Example 4, 2-[(4-{[{(3-[4-(1,1-dimethylethyl)phenyl]-1-methyl-1H-pyrazol-5-yl}carbonyl)amino]methyl}-2-propylphenyl)oxy]-2-methylpropanoic acid]
- EC50 [1]: 0.066 µM
- EC50 [2]: 1.09 µM
- EC50 [3]: 0.072 µM

Structure (SMILES): Cc1cc(CNC(=O)c2cc(-c3ccc(C(C)(C)C)cc3)n(CCN3CCOCC3)n2)ccc1OC(C)(C)C(=O)O [Example 54, 2-[(4-{[({5-[4-(1,1-dimethylethyl)phenyl]-1-[2-(4-morpholinyl)ethyl]-1H-pyrazol-3-yl}carbonyl)amino]methyl}-2-methylphenyl)oxy]-2-methyl propanoic acid hydrochloride]
- EC50 [1]: 0.571 µM
- EC50 [2]: > 25 µM
- EC50 [3]: > 25 µM

Structure (SMILES): Cc1cc(CNC(=O)c2cc(-c3cccc(N4CCCC4)c3)n(C)n2)ccc1OC(C)(C)C(=O)O [Example 41, 2-methyl-2-[(2-methyl-4-{[({1-methyl-5-[3-(1-pyrrolidinyl)phenyl]-1H-pyrazol-3-yl}carbonyl)amino]methyl}phenyl)oxy]propanoic acid]
- EC50 [1]: 0.504 µM
- EC50 [2]: > 25 µM
- EC50 [3]: 0.151 µM

Structure (SMILES): C=CCn1nc(-c2ccc(C(C)(C)C)cc2)cc1C(=O)NCc1ccc(OC(C)(C)C(=O)O)c(C)c1 [Example 47, 2-({4-[({[3-[4-(1,1-dimethylethyl)phenyl]-1-(2-propen-1-yl)-1H-pyrazol-5-yl]carbonyl}amino)methyl]-2-methylphenyl}oxy)-2-methylpropanoic acid]
- EC50 [1]: 0.044 µM
- EC50 [2]: 1.15 µM
- EC50 [3]: 0.059 µM

Structure (SMILES): Cc1cc(CNC(=O)c2cc(-c3ccc(CC(C)C)cc3)n(C)n2)ccc1OC(C)(C)C(=O)O [Example 7, 2-methyl-2-[(2-methyl-4-{[({1-methyl-5-[4-(2-methylpropyl)phenyl]-1H-pyrazol-3-yl}carbonyl)amino]methyl}phenyl)oxy]propanoic acid]
- EC50 [1]: 0.002 µM
- EC50 [2]: 2.06 µM
- EC50 [3]: 0.008 µM

Structure (SMILES): Cn1nc(C(=O)NCc2ccc(OC(C)(C)C(=O)O)cc2)cc1-c1ccc(C(C)(C)C)cc1 [Example 17]
- EC50 [1]: 0.07 µM
- EC50 [3]: 0.376 µM

Structure (SMILES): C=CCOc1ccc(-c2cc(C(=O)NCc3ccc(OC(C)(C)C(=O)O)c(C)c3)nn2C)cc1 [Example 59, 2-methyl-2-[(2-methyl-4-{[({1-methyl-5-[4-(2-propen-1-yloxy)phenyl]-1H-pyrazol-3-yl}carbonyl)amino]methyl}phenyl)oxy]propanoic acid]
- EC50 [1]: 0.094 µM
- EC50 [3]: 0.028 µM

Structure (SMILES): Cc1cc(CNC(=O)c2cc(-c3ccc(C(C)(C)C)cc3)nn2C)ccc1OC(C)(C)C(=O)O [Example 11, 2-[(4-{[({3-[4-(1,1-dimethylethyl)phenyl]-1-methyl-1H-pyrazol-5-yl}carbonyl)amino]methyl}-2-methylphenyl)oxy]-2-methylpropanoic acid]
- EC50 [1]: 0.05 µM
- EC50 [2]: 2.17 µM

Structure (SMILES): Cn1nc(-c2ccc(C(C)(C)C)cc2)cc1C(=O)NCc1ccc(OC(C)(C)C(=O)O)cc1 [Example 16, 12-[(4-{[({3-[4-[1,1-dimethylethyl)phenyl]-1-methyl-1H-pyrazol-5-yl}carbonyl)amino]methyl}phenyl)oxy]-2-methylpropanoic acid]
- EC50 [1]: 0.163 µM
- EC50 [3]: 1.09 µM

Reference: US20080021030A1, “Substituted Pyrazoles As Ppar Agonists” (priority 2003, published 2008)
